Patent US20230025003A1, “DIABETES THERAPY TARGETING ABNORMAL STEM CELLS” (Biozipcode, Inc., priority 2019, published 2023)

Tested on: diabetic patients (type 1 and type 2 diabetes mellitus)
Assay: Research Plan 2: therapy of diabetes mellitus targeting a bone marrow-derived abnormal hematopoietic stem cell
Type: in vivo, human
Conditions: type 1 and type 2 diabetic patients; 12 weeks therapy; predicted result

insulin alone: insulin therapy alone (control group of Research Plan 2)
Effect of eliminating an abnormal hematopoietic stem cell: not eliminated | Effect of healing diabetes mellitus: not observed | Therapeutic effect on a complication: observed to some extent, but the complication does not heal
